Reference: the OligoGym collection
Values joined by “and” are separate entries in the source; they are usually repeats but may differ in a detail not shown here. Equal values may be shown once. HELM strings list units from the 5' end as sugar, base in round brackets, then linkage (d deoxyribose, r ribose, m 2'-O-methyl, p phosphodiester). Strings are as the collection lists them, not checked against the first reports. ss, as = sense and antisense strand; [lna] = locked nucleic acid (LNA); [s4r] = 4'-thioribose; [fl2r] = 2'-fluoro

Details: siRNA
Also: test system not given here.

Substance	target mRNA knockdown
RNA1{m(A)p.r(G)p.m(C)p.r(C)p.m(U)p.r(C)p.m(C)p.r(A)p.m(A)p.r(A)p.m(C)p.r(U)p.m(C)p.r(C)p.m(U)p.r(A)p.m(G)p.r(C)p.m(U)p.r(T)p.r(T)}|RNA2{r(A)p.r(G)p.m(C)p.r(U)p.r(A)p.r(G)p.r(G)p.r(A)p.r(G)p.r(U)p.r(U)p.r(U)p.r(G)p.r(G)p.r(A)p.r(G)p.r(G)p.m(C)p.r(U)p.r(T)p.r(T)}$$$RNA1{StrandType:ss}|RNA2{StrandType:as}$	47%
RNA1{r(C)p.r(U)p.r(U)p.r(A)p.r(C)p.r(G)p.r(C)p.r(U)p.r(G)p.r(A)p.r(G)p.r(U)p.r(A)p.r(C)p.r(U)p.r(U)p.r(C)p.r(G)p.r(A)p.[lna](T)p.[lna](T)}|RNA2{r(U)p.r(C)p.r(G)p.r(A)p.r(A)p.r(G)p.r(U)p.r(A)p.r(C)p.r(U)p.r(C)p.r(A)p.r(G)p.r(C)p.r(G)p.r(U)p.r(A)p.r(A)p.r(G)p.[lna](T)p.[lna](T)}$$$RNA1{StrandType:ss}|RNA2{StrandType:as}$	93% and 92%
RNA1{r(G)p.r(A)p.r(G)p.r(G)p.r(A)p.r(A)p.r(G)p.r(A)p.m(U)p.r(G)p.r(A)p.r(G)p.r(U)p.m(U)p.r(G)p.m(U)p.r(A)p.r(C)p.r(C)p.r(T)p.r(T)}|RNA2{r(G)p.r(G)p.r(U)p.r(A)p.m(C)p.r(A)p.r(A)p.r(C)p.r(U)p.m(C)p.r(A)p.r(U)p.r(C)p.r(U)p.r(U)p.r(C)p.r(C)p.r(U)p.r(C)p.r(T)p.r(T)}$$$RNA1{StrandType:ss}|RNA2{StrandType:as}$	76%
RNA1{[fl2r](A)p.r(G)p.[fl2r](U)p.r(U)p.[fl2r](U)p.r(C)p.[fl2r](U)p.r(A)p.[fl2r](G)p.r(G)p.[fl2r](G)p.[fl2r](C)p.r(C)p.[fl2r](G)p.r(U)p.r(G)p.[fl2r](G)p.r(C)p.r(C)p.r(T)p.r(T)}|RNA2{r(G)p.r(G)p.r(C)p.r(C)p.r(A)p.r(C)p.r(G)p.r(G)p.r(C)p.r(C)p.r(C)p.r(U)p.r(A)p.r(G)p.r(A)p.r(A)p.r(A)p.r(C)p.r(U)p.r(T)p.r(T)}$$$RNA1{StrandType:ss}|RNA2{StrandType:as}$	75%
RNA1{r(G)p.r(G)p.r(A)p.r(A)p.m(G)p.r(U)p.r(A)p.r(A)p.r(G)p.r(G)p.r(A)p.r(C)p.r(C)p.r(A)p.r(G)p.r(A)p.r(G)p.r(A)p.r(C)p.r(T)p.r(T)}|RNA2{r(G)p.r(U)p.r(C)p.r(U)p.r(C)p.r(U)p.r(G)p.r(G)p.r(U)p.r(C)p.r(C)p.r(U)p.m(U)p.r(A)p.r(C)p.r(U)p.r(U)p.r(C)p.r(C)p.r(T)p.r(T)}$$$RNA1{StrandType:ss}|RNA2{StrandType:as}$	44%
RNA1{r(A)p.r(U)p.r(C)p.r(U)p.r(G)p.r(A)p.r(A)p.r(G)p.r(A)p.r(A)p.r(G)p.r(G)p.r(A)p.r(G)p.r(A)p.r(A)p.r(A)p.r(A)p.r(A)p.[lna](T)p.[lna](T)}|RNA2{[lna](T)p.r(U)p.r(U)p.r(U)p.r(U)p.r(C)p.r(U)p.r(C)p.r(C)p.r(U)p.r(U)p.r(C)p.r(U)p.r(U)p.r(C)p.r(A)p.r(G)p.r(A)p.r(U)p.[lna](T)p.[lna](T)}$$$RNA1{StrandType:ss}|RNA2{StrandType:as}$	52% and 63%
RNA1{r(G)p.r(C)p.r(A)p.r(A)p.r(C)p.r(U)p.r(C)p.r(A)p.r(U)p.r(G)p.r(G)p.r(U)p.r(U)p.r(C)p.r(A)p.r(U)p.r(G)p.r(C)p.r(U)p.r(T)p.r(T)}|RNA2{r(A)p.r(G)p.r(C)p.r(A)p.r(U)p.r(G)p.r(A)p.r(A)p.r(C)p.r(C)p.r(A)p.r(U)p.r(G)p.r(A)p.r(G)p.r(U)p.r(U)p.r(G)p.r(C)p.d(T)p.d(T)}$$$RNA1{StrandType:ss}|RNA2{StrandType:as}$	40%
RNA1{[lna](G)p.r(G)p.r(C)p.r(C)p.r(U)p.r(U)p.r(U)p.r(C)p.r(A)p.r(C)p.r(U)p.r(A)p.r(C)p.r(U)p.r(C)p.r(C)p.r(U)p.r(A)p.r(C)p.r(G)p.r(A)}|RNA2{r(G)p.r(U)p.r(A)p.r(G)p.r(G)p.r(A)p.r(G)p.r(U)p.r(A)p.r(G)p.r(U)p.r(G)p.r(A)p.r(A)p.r(A)p.r(G)p.r(G)p.r(C)p.r(C)p.r(A)p.r(G)}$$$RNA1{StrandType:ss}|RNA2{StrandType:as}$	86%
RNA1{[s4r](A)p.[s4r](A)p.r(A)p.r(C)p.r(A)p.r(U)p.r(G)p.r(C)p.r(A)p.r(G)p.r(A)p.r(A)p.r(A)p.r(A)p.r(U)p.r(G)p.r(C)p.r(U)p.r(G)p.r(T)p.r(T)}|RNA2{r(C)p.r(A)p.r(G)p.r(C)p.r(A)p.r(U)p.r(U)p.r(U)p.r(U)p.r(C)p.r(U)p.r(G)p.r(C)p.r(A)p.r(U)p.r(G)p.r(U)p.r(U)p.r(U)p.r(T)p.r(T)}$$$RNA1{StrandType:ss}|RNA2{StrandType:as}$	69.5%
RNA1{m(A)p.r(A)p.m(A)p.r(G)p.m(C)p.r(G)p.m(G)p.r(U)p.m(G)p.r(G)p.m(A)p.r(U)p.m(C)p.r(A)p.m(G)p.r(C)p.m(U)p.r(C)p.m(U)p.r(T)p.r(T)}|RNA2{r(A)p.m(G)p.r(A)p.m(G)p.r(C)p.r(U)p.r(G)p.r(A)p.r(U)p.r(C)p.r(C)p.r(A)p.r(C)p.r(C)p.m(G)p.r(C)p.r(U)p.r(U)p.r(U)p.r(T)p.r(T)}$$$RNA1{StrandType:ss}|RNA2{StrandType:as}$	43%
RNA1{m(A)p.m(A)p.m(G)p.m(G)p.m(A)p.m(G)p.m(A)p.m(U)p.m(C)p.m(A)p.m(A)p.m(C)p.m(A)p.m(U)p.m(U)p.m(U)p.m(U)p.m(C)p.m(A)p.r(T)p.r(T)}|RNA2{r(U)p.r(G)p.r(A)p.r(A)p.r(A)p.r(A)p.r(U)p.r(G)p.r(U)p.r(U)p.r(G)p.r(A)p.r(U)p.r(C)p.r(U)p.r(C)p.r(C)p.m(U)p.m(U)p.r(T)p.r(T)}$$$RNA1{StrandType:ss}|RNA2{StrandType:as}$	77%
RNA1{m(U)p.r(C)p.m(C)p.r(U)p.m(A)p.r(G)p.m(C)p.r(U)p.m(G)p.r(U)p.m(C)p.r(U)p.m(U)p.r(G)p.m(U)p.r(C)p.m(C)p.r(C)p.m(U)p.r(T)p.r(T)}|RNA2{r(A)p.r(G)p.r(G)p.r(G)p.r(A)p.r(C)p.r(A)p.r(A)p.r(G)p.r(A)p.r(C)p.r(A)p.r(G)p.r(C)p.r(U)p.r(A)p.r(G)p.r(G)p.r(A)p.r(T)p.r(T)}$$$RNA1{StrandType:ss}|RNA2{StrandType:as}$	27%
RNA1{r(A)p.r(A)p.r(G)p.m(G)p.m(A)p.r(G)p.r(A)p.r(U)p.m(C)p.m(A)p.m(A)p.r(C)p.r(A)p.r(U)p.m(U)p.m(U)p.r(U)p.r(C)p.r(A)p.r(T)p.r(T)}|RNA2{m(U)p.m(G)p.m(A)p.r(A)p.r(A)p.m(A)p.m(U)p.m(G)p.r(U)p.r(U)p.r(G)p.m(A)p.m(U)p.m(C)p.r(U)p.r(C)p.m(C)p.m(U)p.m(U)p.r(T)p.r(T)}$$$RNA1{StrandType:ss}|RNA2{StrandType:as}$	38%
RNA1{[s4r](C)p.[s4r](G)p.[s4r](U)p.[s4r](A)p.r(C)p.r(G)p.r(C)p.r(G)p.r(G)p.r(A)p.r(A)p.r(U)p.r(A)p.r(C)p.r(U)p.r(U)p.r(C)p.r(G)p.r(A)p.r(T)p.r(T)}|RNA2{[s4r](U)p.[s4r](C)p.r(G)p.r(A)p.r(A)p.r(G)p.r(U)p.r(A)p.r(U)p.r(U)p.r(C)p.r(C)p.r(G)p.r(C)p.r(G)p.r(U)p.r(A)p.[s4r](C)p.[s4r](G)p.r(T)p.r(T)}$$$RNA1{StrandType:ss}|RNA2{StrandType:as}$	85.4%
